Measurements published in ChEMBL document CHEMBL3352542, “Synthesis, biological evaluation and molecular modeling study of 2-(1,3,4-thiadiazolyl-thio and 4-methyl-thiazolyl-thio)-quinazolin-4-ones as a new class of DHFR inhibitors” (Bioorg Med Chem Lett, 2014).
Active and inactive are the calls of the source. The rule behind the calls is not given here.

Columns and labels:
Dihydrofolate reductase = biological target: T1, Dihydrofolate reductase (Bos taurus, UniProt P00376); experiment: Inhibition of bovine liver DHFR
T1 sequence (P00376 whole entry): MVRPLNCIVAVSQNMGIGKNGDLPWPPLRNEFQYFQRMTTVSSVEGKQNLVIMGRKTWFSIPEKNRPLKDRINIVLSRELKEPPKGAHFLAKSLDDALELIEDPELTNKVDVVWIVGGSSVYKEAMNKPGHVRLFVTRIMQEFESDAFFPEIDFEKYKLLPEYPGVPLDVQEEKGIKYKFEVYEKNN

Staphylococcus aureus [1] = experiment: Antimicrobial activity against Staphylococcus aureus assessed as inhibition zone at 200 ug/disk after 24 hrs by disc-diffusion method; type: functional; settings: read-out: IZ
Bacillus subtilis [2] = experiment: Antimicrobial activity against Bacillus subtilis assessed as inhibition zone at 200 ug/disk after 24 hrs by disc-diffusion method; type: functional; settings: read-out: IZ
Escherichia coli = experiment: Antimicrobial activity against Escherichia coli assessed as inhibition zone at 200 ug/disk after 24 hrs by disc-diffusion method; type: functional; settings: read-out: IZ
Pseudomonas aeruginosa = experiment: Antimicrobial activity against Pseudomonas aeruginosa assessed as inhibition zone at 200 ug/disk after 24 hrs by disc-diffusion method; type: functional; settings: read-out: IZ
Candida albicans = experiment: Antimicrobial activity against Candida albicans assessed as inhibition zone at 200 ug/disk after 24 hrs by disc-diffusion method; type: functional; settings: read-out: IZ
[3] = (§1) Growth inhibition of human MOLT4 cells at 10 uM after 48 hrs; type: functional; settings: MOLT-4, 48 h, read-out: GI
SR = experiment: Growth inhibition of human SR cells at 10 uM after 48 hrs; type: functional; settings: for inhibition of growth at 10 µM: read-out: GI
[4] = (§2) Growth inhibition of human HOP92 cells at 10 uM after 48 hrs; type: functional; settings: HOP-92, 48 h, read-out: GI
[5] = (§3) Growth inhibition of human SF295 cells at 10 uM after 48 hrs; type: functional; settings: SF-295, 48 h, read-out: GI
A498 = experiment: Growth inhibition of human A498 cells at 10 uM after 48 hrs; type: functional; settings: for inhibition of growth at 10 µM: A498, 48 h, read-out: GI
[6] = (§4) Growth inhibition of human UO31 cells at 10 uM after 48 hrs; type: functional; settings: UO-31, 48 h, read-out: GI
NCI-H226 = experiment: Growth inhibition of human NCI-H226 cells at 10 uM after 48 hrs; type: functional
MCF7 = experiment: Growth inhibition of human MCF7 cells at 10 uM after 48 hrs; type: functional; settings: for inhibition of growth at 10 µM: MCF7, 48 h, read-out: GI
T47D = experiment: Growth inhibition of human T47D cells at 10 uM after 48 hrs; type: functional; settings: for inhibition of growth at 10 µM: read-out: GI
HL-60(TB) = experiment: Growth inhibition of human HL-60(TB) cells at 10 uM after 48 hrs; type: functional
[7] = (§5) Growth inhibition of human RPMI8226 cells at 10 uM after 48 hrs; type: functional; settings: RPMI-8226, 48 h, read-out: GI
Staphylococcus aureus [8] = experiment: Antimicrobial activity against Staphylococcus aureus assessed as inhibition of visible growth after 24 hrs by disc-diffusion method; type: functional, organism-based
Bacillus subtilis [9] = experiment: Antimicrobial activity against Bacillus subtilis assessed as inhibition of visible growth after 24 hrs by disc-diffusion method; type: functional, organism-based
CCRF-CEM = experiment: Growth inhibition of human CCRF-CEM cells at 10 uM after 48 hrs; type: functional
K562 = experiment: Growth inhibition of human K562 cells at 10 uM after 48 hrs; type: functional
MOLT-4 = experiment: as §1; type: functional
RPMI-8226 = experiment: as §5; type: functional
A549 = experiment: Growth inhibition of human A549 cells at 10 uM after 48 hrs; type: functional
HOP-92 = experiment: as §2; type: functional
NCI-H23 = experiment: Growth inhibition of human NCI-H23 cells at 10 uM after 48 hrs; type: functional
NCI-H460 = experiment: Growth inhibition of human NCI-H460 cells at 10 uM after 48 hrs; type: functional
NCI-H522 = experiment: Growth inhibition of human NCI-H522 cells at 10 uM after 48 hrs; type: functional
COLO 205 = experiment: Growth inhibition of human COLO205 cells at 10 uM after 48 hrs; type: functional
HCC 2998 = experiment: Growth inhibition of human HCC2998 cells at 10 uM after 48 hrs; type: functional
HCT-116 = experiment: Growth inhibition of human HCT116 cells at 10 uM after 48 hrs; type: functional
HCT-15 = experiment: Growth inhibition of human HCT15 cells at 10 uM after 48 hrs; type: functional
HT-29 = experiment: Growth inhibition of human HT-29 cells at 10 uM after 48 hrs; type: functional
KM12 = experiment: Growth inhibition of human KM12 cells at 10 uM after 48 hrs; type: functional
SW-620 = experiment: Growth inhibition of human SW620 cells at 10 uM after 48 hrs; type: functional
SF-268 = experiment: Growth inhibition of human SF268 cells at 10 uM after 48 hrs; type: functional
SF-295 = experiment: as §3; type: functional
SF-539 = experiment: Growth inhibition of human SF539 cells at 10 uM after 48 hrs; type: functional
SNB-19 = experiment: Growth inhibition of human SNB19 cells at 10 uM after 48 hrs; type: functional
SNB-75 = experiment: Growth inhibition of human SNB75 cells at 10 uM after 48 hrs; type: functional
U-251 = experiment: Growth inhibition of human U251 cells at 10 uM after 48 hrs; type: functional
LOX IMVI = experiment: Growth inhibition of human LOXIMVI cells at 10 uM after 48 hrs; type: functional
Malme-3M = experiment: Growth inhibition of human MALME-3M cells at 10 uM after 48 hrs; type: functional
M14 = experiment: Growth inhibition of human M14 cells at 10 uM after 48 hrs; type: functional
MDA-MB-435 = experiment: Growth inhibition of human MDA-MB-435 cells at 10 uM after 48 hrs; type: functional
SK-MEL-5 = experiment: Growth inhibition of human SK-MEL-5 cells at 10 uM after 48 hrs; type: functional
UACC-257 = experiment: Growth inhibition of human UACC257 cells at 10 uM after 48 hrs; type: functional
UACC-62 = experiment: Growth inhibition of human UACC62 cells at 10 uM after 48 hrs; type: functional
OVCAR-3 = experiment: Growth inhibition of human OVCAR3 cells at 10 uM after 48 hrs; type: functional
OVCAR-4 = experiment: Growth inhibition of human OVCAR4 cells at 10 uM after 48 hrs; type: functional
OVCAR-5 = experiment: Growth inhibition of human OVCAR5 cells at 10 uM after 48 hrs; type: functional
OVCAR-8 = experiment: Growth inhibition of human OVCAR8 cells at 10 uM after 48 hrs; type: functional
NCI/ADR-RES = experiment: Growth inhibition of human NCI-ADR-RES cells at 10 uM after 48 hrs; type: functional
786-0 = experiment: Growth inhibition of human 786-0 cells at 10 uM after 48 hrs; type: functional
ACHN = experiment: Growth inhibition of human ACHN cells at 10 uM after 48 hrs; type: functional
CAKI-1 = experiment: Growth inhibition of human CAKI-1 cells at 10 uM after 48 hrs; type: functional
RXF 393 = experiment: Growth inhibition of human RXF393 cells at 10 uM after 48 hrs; type: functional
SN12C = experiment: Growth inhibition of human SN12C cells at 10 uM after 48 hrs; type: functional
TK-10 = experiment: Growth inhibition of human TK10 cells at 10 uM after 48 hrs; type: functional
UO-31 = experiment: as §4; type: functional
PC-3 = experiment: Growth inhibition of human PC3 cells at 10 uM after 48 hrs; type: functional
MDA-MB-231 = experiment: Growth inhibition of human MDA-MB-231 cells at 10 uM after 48 hrs; type: functional
Hs-578T = experiment: Growth inhibition of human Hs 578T cells at 10 uM after 48 hrs; type: functional
BT-549 = experiment: Growth inhibition of human BT549 cells at 10 uM after 48 hrs; type: functional
MDA-MB-468 = experiment: Growth inhibition of human MDA-MB-468 cells at 10 uM after 48 hrs; type: functional

SMILES: COc1cc2nc(Sc3nnc(N)s3)n(Cc3ccccc3)c(=O)c2cc1OC
- IC50 (Dihydrofolate reductase): 6 µM
- zone of inhibition at 200 µg/disc (Staphylococcus aureus [1]): 8 mm
- zone of inhibition at 200 µg/disc (Bacillus subtilis [2]): 14 mm
- zone of inhibition at 200 µg/disc (Escherichia coli): 8 mm
- zone of inhibition at 200 µg/disc (Pseudomonas aeruginosa): 8 mm
- zone of inhibition at 200 µg/disc (Candida albicans): 8 mm
- inhibition of growth at 10 µM [3]: 18.5%
- inhibition of growth at 10 µM (SR): 13.4%
- inhibition of growth at 10 µM [4]: 26.7%
- inhibition of growth at 10 µM [5]: 11.4%
- inhibition of growth at 10 µM (A498): 18.7%
- inhibition of growth at 10 µM [6]: 21.5%

SMILES: COc1ccc(-n2c(Sc3nnc(N)s3)nc3ccc(Cl)cc3c2=O)cc1
- IC50 (Dihydrofolate reductase): 0.8 µM
- zone of inhibition at 200 µg/disc (Staphylococcus aureus [1]): 8 mm
- zone of inhibition at 200 µg/disc (Bacillus subtilis [2]): 8 mm
- zone of inhibition at 200 µg/disc (Escherichia coli): 8 mm
- zone of inhibition at 200 µg/disc (Pseudomonas aeruginosa): 8 mm
- zone of inhibition at 200 µg/disc (Candida albicans): 8 mm
- inhibition of growth at 10 µM [3]: 12%
- inhibition of growth at 10 µM (SR): 19.1%
- inhibition of growth at 10 µM [4]: 42.1%
- inhibition of growth at 10 µM (NCI-H226; NCI-H226, 48 h, read-out: GI): 13.4%
- inhibition of growth at 10 µM [5]: 11%
- inhibition of growth at 10 µM (A498): 36.4%
- inhibition of growth at 10 µM [6]: 21.1%
- inhibition of growth at 10 µM (MCF7): 13.2%
- inhibition of growth at 10 µM (T47D): 12%

SMILES: Nc1nnc(Sc2nc3ccc(Cl)cc3c(=O)n2-c2ccccc2)s1
- IC50 (Dihydrofolate reductase): 6 µM
- zone of inhibition at 200 µg/disc (Staphylococcus aureus [1]): 8 mm
- zone of inhibition at 200 µg/disc (Bacillus subtilis [2]): 8 mm
- zone of inhibition at 200 µg/disc (Escherichia coli): 8 mm
- zone of inhibition at 200 µg/disc (Pseudomonas aeruginosa): 8 mm
- zone of inhibition at 200 µg/disc (Candida albicans): 8 mm
- inhibition of growth at 10 µM (HL-60(TB); HL-60, 48 h, read-out: GI): 21.5%
- inhibition of growth at 10 µM [7]: 19.1%
- inhibition of growth at 10 µM [4]: 28.6%
- inhibition of growth at 10 µM (MCF7): 16.4%
- inhibition of growth at 10 µM (T47D): 21.4%

SMILES: Cc1ccc2nc(Sc3sc(N)nc3C)n(-c3ccc(Oc4ccccc4)cc3)c(=O)c2c1
- IC50 (Dihydrofolate reductase): 2 µM
- zone of inhibition at 200 µg/disc (Staphylococcus aureus [1]): 26 mm
- zone of inhibition at 200 µg/disc (Bacillus subtilis [2]): 22 mm
- zone of inhibition at 200 µg/disc (Escherichia coli): 14 mm
- zone of inhibition at 200 µg/disc (Pseudomonas aeruginosa): 8 mm
- zone of inhibition at 200 µg/disc (Candida albicans): 8 mm
- Activity (Staphylococcus aureus [8]): Active
- Activity (Bacillus subtilis [9]): Active
- growth inhibition (GI) (CCRF-CEM): inactive
- growth inhibition (GI) (HL-60(TB)): inactive
- growth inhibition (GI) (K562): inactive
- growth inhibition (GI) (MOLT-4): inactive
- growth inhibition (GI) (RPMI-8226): inactive
- growth inhibition (GI) (SR): inactive
- growth inhibition (GI) (A549): inactive
- growth inhibition (GI) (HOP-92): inactive
- growth inhibition (GI) (NCI-H226): inactive
- growth inhibition (GI) (NCI-H23): inactive
- growth inhibition (GI) (NCI-H460): inactive
- growth inhibition (GI) (NCI-H522): inactive
- growth inhibition (GI) (COLO 205): inactive
- growth inhibition (GI) (HCC 2998): inactive
- growth inhibition (GI) (HCT-116): inactive
- growth inhibition (GI) (HCT-15): inactive
- growth inhibition (GI) (HT-29): inactive
- growth inhibition (GI) (KM12): inactive
- growth inhibition (GI) (SW-620): inactive
- growth inhibition (GI) (SF-268): inactive
- growth inhibition (GI) (SF-295): inactive
- growth inhibition (GI) (SF-539): inactive
- growth inhibition (GI) (SNB-19): inactive
- growth inhibition (GI) (SNB-75): inactive
- growth inhibition (GI) (U-251): inactive
- growth inhibition (GI) (LOX IMVI): inactive
- growth inhibition (GI) (Malme-3M): inactive
- growth inhibition (GI) (M14): inactive
- growth inhibition (GI) (MDA-MB-435): inactive
- growth inhibition (GI) (SK-MEL-5): inactive
- growth inhibition (GI) (UACC-257): inactive
- growth inhibition (GI) (UACC-62): inactive
- growth inhibition (GI) (OVCAR-3): inactive
- growth inhibition (GI) (OVCAR-4): inactive
- growth inhibition (GI) (OVCAR-5): inactive
- growth inhibition (GI) (OVCAR-8): inactive
- growth inhibition (GI) (NCI/ADR-RES): inactive
- growth inhibition (GI) (786-0): inactive
- growth inhibition (GI) (A498): inactive
- growth inhibition (GI) (ACHN): inactive
- growth inhibition (GI) (CAKI-1): inactive
- growth inhibition (GI) (RXF 393): inactive
- growth inhibition (GI) (SN12C): inactive
- growth inhibition (GI) (TK-10): inactive
- growth inhibition (GI) (UO-31): inactive
- growth inhibition (GI) (PC-3): inactive
- growth inhibition (GI) (MCF7): inactive
- growth inhibition (GI) (MDA-MB-231): inactive
- growth inhibition (GI) (Hs-578T): inactive
- growth inhibition (GI) (BT-549): inactive
- growth inhibition (GI) (T47D): inactive
- growth inhibition (GI) (MDA-MB-468): inactive
